# Data taken from patent publication US12691107B2, “Methods for the treatment and prevention of lung infections caused by gram-positive bacteria, fungus, or virus by administration of tafenoquine” (priority 2020, dated 2026).
# “And” between values parts separate entries of the source, which are not always exact repeats. Equal values may be shown once. Read-outs that look alike come from different tables or passages of the source.
# Key:
# E. coli = test: Antibacterial MIC (broth microdilution); assay type: cell-based
# Method: Growth Medium—Cation adjusted Mueller-Hinton broth was used as the test medium. Broth for panel preparation was prepared from commercial dehydrated medium (Difco formulation, BD Diagnostics, catalog number 275730).
# Dilution of Investigational Agents—Polystyrene test tubes were used to prepare the drug dilutions and sterile U-shaped 96-well polystyrene microtiter trays were used for performing the MIC assays. Stock solutions of the investigational agents were prepared at concentrations 100-times the highest concentration to be tested (6400-1.25 μg/ml) using dimethyl sulfoxide. Aliquots of the stock solutions were dispensed into polypropylene vials and stored at −20° C. Further dilutions (1:50) were made in the culture medium (cation-adjusted Mueller-Hinton medium).
# After the dilutions of the working 2-fold investigational antibacterial solutions were prepared, 50 μL of each concentration was transferred into rows of the first 10 wells of each 12-well column of the U-shaped disposable 96-well microtiter trays using a multichannel pipettor. The 11th well in each row served as the sterility control, and the 12th well contained only culture medium to serve as the growth control for each isolate. In like manner, the control drug for the organism being tested was prepared in a separate 96 well panel exactly as described above. A 50 μL volume of the standardized inoculum suspension of each test isolate was prepared in culture medium to directly inoculate each test well of the drug containing microtiter tray.
# Inoculum Preparation—Colonies of each strain generated on sheep blood agar plates with overnight growth at 35° C. in ambient air were used to directly prepare a suspension equivalent in density to the 0.5 McFarland opacity standard. The exact turbidity of each suspension was determined using a desktop portable photometer. For panels containing 2× drug concentrations, a 1:100 dilution of the McFarland organism suspension was prepared in cation-adjusted Mueller-Hinton broth and 50 μL aliquots of each test (and control) strain was added to each well of the designated rows of the microtiter trays using a multichannel pipettor. The target inoculum concentration was 5×10^5 CFU/ml in each well.
# Trays were removed and each well were inspected for evidence of growth (turbidity). The MIC was defined as the lowest concentration of the investigational agent and the control drug that prevents visibly discernible growth in the test wells.
# Saksenaea sp. = test: Antifungal MIC (RPMI-1640 microdilution); assay type: cell-based
# Rhizopus arrhizus = test: Antifungal MIC (RPMI-1640 microdilution); assay type: cell-based
# K. pneumoniae = test: Antibacterial MIC (broth microdilution); assay type: cell-based; conditions: Klebsiella pneumoniae
# Streptococcus pneumoniae = test: Antibacterial MIC (broth microdilution); assay type: cell-based; conditions: CA-MHB with 3% LHB
# Sporothrix sp. = test: Antifungal MIC (RPMI-1640 microdilution); assay type: cell-based
# Plasmodium cynomolgi = conditions: for three days; cited from earlier work
# Pneumocystis [1] = conditions: cited from earlier work; for minimum dose required to reduce parasitemia nearly to zero: two to three week period
# GPCMV strain 22122 = test: GPCMV qPCR assay in Guinea Pig Lung cells; assay type: cell-based; conditions: Cavia porcellus, 168 h, 7 d
# Pneumocystis [2] = conditions: cited from earlier work
# [3] = female, rat, in vivo, 2 mg/kg
# Pneumocystis [4] = test: Pneumocystis in vitro (Bartlett et al., 1991); assay type: cell-based; conditions: read-out: equivalent MIC in the absence of protein
# Source text: Therefore, the minimum inhibitory concentration in vitro is approximately 10 microgram/ml.
# SARS-CoV-2 [5] = test: microbe, parasite or virus in culture; assay type: cell-based
# [6] = rat, in vivo, 125 mg/kg; cited from earlier work
# SARS-CoV-2 [7] = test: Calculation of RLTEC and MPEC50 for tafenoquine against SARS-CoV-2
# Method: (§1) Pneumocystis was used as a model organism against which to set minimum requirements for the maximum acceptable in vitro EC50 of tafenoquine against SARS-CoV-2 in vitro. Pneumocystis was selected because it is the only lung pathogen for which both in vitro and in vivo data are available for tafenoquine. The maximum lung tissue concentration [LTsscmaxrats] at the minimum dose of tafenoquine necessary to inhibit the growth of Pneumocystis in vivo in a treatment modality was calculated using relevant data derived from the scientific literature [see Table 7]. The ratio of that concentration to the EC50 against Pneumocystis in vitro RLTEC was determined [see Table 7]. The plasma steady state Cmax [Psscmaxhumans] at the approved prophylactic dose is known from the ARAKODA product insert [60 Degrees Pharmaceuticals. 2018. Product Insert for ARAKODA.]. The maximum steady state lung tissue concentration [LTsscmaxhumans] of that dose was determined using relevant metrics from the literature. The maximum permissible EC50 (“MPEC50”) was then defined by dividing the LTsscmaxhumans by the RLTEC [Table 7].
# (§2) The steady state Cmax at the approved prophylactic dose is known based on prior modeling. The maximum steady state lung tissue concentration of that dose was estimated to be 389 microM [Table 7].
# (§3) [Note: These calculated values provided in this example were recalculated and updated in the present application and therefore may differ from what is presented in some cross-referenced U.S. Provisional Applications.]
# [8] = as above; conditions: human, lung/whole blood; assumed to be the same as rats; read-out: Ratio of lung to whole blood concentration for humans
# Method: as §1, §2, §3
# MCMV strain Smith = test: MCMV qPCR assay in mouse embryo fibroblast cells; assay type: cell-based; conditions: 168 h, 7 d
smiles,measurement,setting,value
COc1cc(C)c2c(Oc3cccc(C(F)(F)F)c3)c(OC)cc(NC(C)CCCN)c2n1.O=C(O)CCC(=O)O (stereo not shown) [Tafenoquine Succinate],MIC,"E. coli; Escherichia coli, ATCC25922, isolate ATCC 25922, read-out: MIC",> 64 µg/mL
same,MIC,"E. coli; Escherichia coli, isolate J4243 (MO72), read-out: MIC",> 64 µg/mL
same,MIC,E. coli; isolate J4244 (JJ1886),>64 µg/mL
same,MIC50,"Saksenaea sp.; read-out: MIC 50% inhibition, isolate Sak1",4 µg/mL
same,MIC50,"Saksenaea sp.; read-out: MIC 50% inhibition, isolate Sak2",2 µg/mL
same,MIC50,"Saksenaea sp.; read-out: MIC 50% inhibition, isolate Sak3",8 µg/mL
same,MIC,"Saksenaea sp.; read-out: MIC 100% inhibition, isolate Sak1",8 µg/mL
same,MIC,"Saksenaea sp.; read-out: MIC 100% inhibition, isolate Sak2",2 µg/mL
same,MIC,"Saksenaea sp.; read-out: MIC 100% inhibition, isolate Sak3",8 µg/mL
same,MIC50,"Rhizopus arrhizus; read-out: MIC 50% inhibition, isolate 99-880",4 µg/mL
same,MIC50,"Rhizopus arrhizus; read-out: MIC 50% inhibition, isolate 99-892",4 µg/mL
same,MIC50,"Rhizopus arrhizus; read-out: MIC 50% inhibition, isolate RAI",8 µg/mL
same,MIC,"Rhizopus arrhizus; read-out: MIC 100% inhibition, isolate 99-880",4 µg/mL
same,MIC,"Rhizopus arrhizus; read-out: MIC 100% inhibition, isolate 99-892",4 µg/mL
same,MIC,"Rhizopus arrhizus; read-out: MIC 100% inhibition, isolate RAI",16 µg/mL
same,MIC,"K. pneumoniae; ATCC70063, isolate ATCC 70063",> 64 µg/mL
same,MIC,K. pneumoniae; isolate AR-97,> 64 µg/mL
same,MIC,K. pneumoniae; isolate AR-113,> 64 µg/mL
same,MIC,"Streptococcus pneumoniae; Streptococcus pneumoniae, ATCC49619, isolate ATCC 49619, read-out: MIC",16 µg/mL
same,MIC,"Streptococcus pneumoniae; Streptococcus pneumoniae, isolate MD77773, read-out: MIC",16 µg/mL
same,MIC,Streptococcus pneumoniae; isolate CO314937,16 µg/mL
same,MIC50,"Sporothrix sp.; read-out: MIC 50% inhibition, isolate Sporo1",2 µg/mL
same,MIC50,"Sporothrix sp.; read-out: MIC 50% inhibition, isolate Sporo2",1 µg/mL
same,MIC50,"Sporothrix sp.; read-out: MIC 50% inhibition, isolate Sporo3",2 µg/mL
same,MIC,"Sporothrix sp.; read-out: MIC 100% inhibition, isolate Sporo1",4 µg/mL
same,MIC,"Sporothrix sp.; read-out: MIC 100% inhibition, isolate Sporo2",2 µg/mL
same,MIC,"Sporothrix sp.; read-out: MIC 100% inhibition, isolate Sporo3",4 µg/mL
"COc1cc(C)c2c(Oc3cccc(C(F)(F)F)c3)c(OC)cc(NC(C)CCCN)c2n1 (stereo not shown) [Tafenoquine, N(4)-[2,6-Dimethoxy-4-methyl-5-[3-(trifluoromethyl)phenoxy]quinolin-8-yl]pentane-1,4-diamine]",dose required to eliminate the replicating blood stage forms,Plasmodium cynomolgi,6 mg/kg/day
same,dose required to kill the quiescent hypnozoites,Plasmodium cynomolgi,0.6 mg/kg/day
same,minimum dose required to reduce parasitemia nearly to zero,"Pneumocystis [1]; prophylaxis, once every 4 days orally",4 mg/kg
same,Dose in female rats required to exhibit a statistically significant impairment of Pneumocystis replication,Pneumocystis [1]; treatment modality,2 mpk q 4 days and 2 mpk q 4 mpk q 4 days
same,minimum dose required to reduce parasitemia nearly to zero,"Pneumocystis [1]; treatment, daily orally",4 mg/kg/day
same,EC50,GPCMV strain 22122,> 6 µM
same,Approximate EC50 of tafenoquine against Pneumocystis in vitro,Pneumocystis [2],~1 µg/mL
same,Estimate of plasma concentration following a single dose of 2 mpk in rats,[3],35.84 ng/mL
same,MIC,Pneumocystis [4],5 µg/mL
same,selectivity index,SARS-CoV-2 [5]; 4-day assay,2.4
same,EC50,"SARS-CoV-2 [5]; Severe acute respiratory syndrome coronavirus 2, Vero C1008, 96 h",15.7 µM
same,Maximum plasma concentration following a single 125 mpk dose in female rats,[6],2240 ng/mL
same,LTsscmaxhumans (maximum steady state lung tissue concentration),SARS-CoV-2 [7]; approved prophylactic dose,389 µM
same,LTcmaxrats (maximum lung tissue concentration),SARS-CoV-2 [7]; plasma Cmax multiplied by 2.6 and 250,"23,296 ng/ml"
same,Kp,[8],250
same,EC50,MCMV strain Smith,> 6 µM
